Assays:
[1] = Clearance in rat at 2 mg/kg, iv; type: ADME, organism-based; details: in vivo
[2] = AUC in rat at 10 mg/kg, po; type: ADME, organism-based; parameters: dose 10 mg/kg, route po; details: in vivo
[3] = Half life in rat at 1 mg/kg, iv; type: ADME, organism-based; details: in vivo
[4] = Half life in dog at 1 mg/kg, iv; type: ADME, organism-based, Canis lupus familiaris; details: in vivo
[5] = Clearance in dog at 1 mg/kg, iv; type: ADME, organism-based, Canis lupus familiaris; details: in vivo
[6] = target: T1, Human immunodeficiency virus type 1 protease (Human immunodeficiency virus 1, UniProt Q72874); assay: Binding affinity to HIV1 protease assessed as inhibition constant
[7] = system: Human immunodeficiency virus 1; assay: Ratio of EC50 for antiviral activity against HIV1-MM to EC50 for antiviral activity against wild type HIV1 ERS104pre; type: functional
[8] = system: Human immunodeficiency virus 1; assay: Antiviral activity against darunavir-resistant HIV1 10P infected in phytohemagglutinin-activated human PBMC cells assessed as inhibition of virus-induced cytopathic effect measured after 7 days by MTT assay; type: functional, organism-based; details: Human immunodeficiency virus 1, 10P, 168 h
[9] = system: Human immunodeficiency virus 1; assay: Ratio of EC50 for antiviral activity against HIV1-JSL to EC50 for antiviral activity against wild type HIV1 ERS104pre; type: functional
[10] = system: Human immunodeficiency virus 1; assay: Antiviral activity against multidrug-resistant HIV1-B infected in phytohemagglutinin-activated human PBMC cells assessed as inhibition of virus-induced cytopathic effect measured after 7 days by MTT assay; type: functional, organism-based; details: Human immunodeficiency virus 1, B, 168 h
[11] = system: Human immunodeficiency virus 1; assay: Antiviral activity against multidrug-resistant HIV1-C infected in phytohemagglutinin-activated human PBMC cells assessed as inhibition of virus-induced cytopathic effect measured after 7 days by MTT assay; type: functional, organism-based; details: Human immunodeficiency virus 1, C, 168 h
[12] = system: Human immunodeficiency virus 1; assay: Ratio of EC50 for antiviral activity against HIV1-C to EC50 for antiviral activity against wild type HIV1 ERS104pre; type: functional
[13] = system: Human immunodeficiency virus 1; assay: Antiviral activity against multidrug-resistant HIV1-MM infected in phytohemagglutinin-activated human PBMC cells assessed as inhibition of virus-induced cytopathic effect measured after 7 days by MTT assay; type: functional, organism-based; details: Human immunodeficiency virus 1, MM, 168 h
[14] = system: Human immunodeficiency virus 1; assay: Ratio of EC50 for antiviral activity against darunavir-resistant HIV1 20P to EC50 for antiviral activity against wild type HIV1 ERS104pre; type: functional
[15] = system: Human immunodeficiency virus 1; assay: Antiviral activity against darunavir-resistant HIV1 20P infected in phytohemagglutinin-activated human PBMC cells assessed as inhibition of virus-induced cytopathic effect measured after 7 days by MTT assay; type: functional, organism-based; details: Human immunodeficiency virus 1, 20P, 168 h
[16] = system: Human immunodeficiency virus 1; assay: Ratio of EC50 for antiviral activity against darunavir-resistant HIV1 10P to EC50 for antiviral activity against wild type HIV1 ERS104pre; type: functional
[17] = system: Human immunodeficiency virus 1; assay: Antiviral activity against multidrug-resistant HIV1-G infected in phytohemagglutinin-activated human PBMC cells assessed as inhibition of virus-induced cytopathic effect measured after 7 days by MTT assay; type: functional, organism-based; details: Human immunodeficiency virus 1, G, 168 h
[18] = system: Human immunodeficiency virus 1; assay: Antiviral activity against multidrug-resistant HIV1-TM infected in phytohemagglutinin-activated human PBMC cells assessed as inhibition of virus-induced cytopathic effect measured after 7 days by MTT assay; type: functional, organism-based; details: Human immunodeficiency virus 1, TM, 168 h
[19] = system: Human immunodeficiency virus 1; assay: Ratio of EC50 for antiviral activity against HIV1-G to EC50 for antiviral activity against wild type HIV1 ERS104pre; type: functional
[20] = system: Human immunodeficiency virus 1; assay: Antiviral activity against wild type HIV1 ERS104pre infected in human PBMC cells assessed as inhibition of virus-induced cytopathic effect measured after 7 days by MTT assay; type: functional, organism-based; details: Human immunodeficiency virus 1, ERS104pre, 168 h
[21] = system: Human immunodeficiency virus 1; assay: Ratio of EC50 for antiviral activity against HIV1-TM to EC50 for antiviral activity against wild type HIV1 ERS104pre; type: functional
[22] = system: Human immunodeficiency virus 1; assay: Antiviral activity against multidrug-resistant HIV1-JSL infected in phytohemagglutinin-activated human PBMC cells assessed as inhibition of virus-induced cytopathic effect measured after 7 days by MTT assay; type: functional, organism-based; details: Human immunodeficiency virus 1, JSL, 168 h
[23] = system: Human immunodeficiency virus 1; assay: Ratio of EC50 for antiviral activity against HIV1-B to EC50 for antiviral activity against wild type HIV1 ERS104pre; type: functional
[24] = target: T1, Human immunodeficiency virus type 1 protease; assay: Binding affinity to wild-type HIV1 protease expressed in Escherichia coli BL21(DE3) assessed as inhibition constant using (2-aminobenzoyl)Thr-Ile-Nle-(p-nitro)Phe-Gln-Arg peptide as substrate preincubated for 15 mins followed by substrate addition by fluorimeter analysis
[25] = system: Human immunodeficiency virus 1; assay: Antiviral activity against HIV1 T13572 infected in human MT4 cells expressing LTR and EGFP assessed as inhibition of virus-induced cytopathic effect by fluorescence microscopic analysis; type: functional, organism-based; details: Human immunodeficiency virus 1, T13572, MT4
[26] = system: Human immunodeficiency virus 1; assay: Ratio of EC50 for antiviral activity against HIV1-T21217 to EC50 for antiviral activity against wild type HIV1 r13205; type: functional
[27] = Lipophilicity, logD of the compound in Octanol/buffer by shake-flask method; type: physicochemical
[28] = system: Human immunodeficiency virus 1; assay: Ratio of EC50 for antiviral activity against HIV1-T13717 to EC50 for antiviral activity against wild type HIV1 r13205; type: functional
[29] = system: Human immunodeficiency virus 1; assay: Ratio of EC50 for antiviral activity against HIV1-T13632 to EC50 for antiviral activity against wild type HIV1 r13205; type: functional
[30] = system: Human immunodeficiency virus 1; assay: Ratio of EC50 for antiviral activity against HIV1-T13572 to EC50 for antiviral activity against wild type HIV1 r13205; type: functional
[31] = system: Human immunodeficiency virus 1; assay: Antiviral activity against HIV1 T21055 infected in human MT4 cells expressing LTR and EGFP assessed as inhibition of virus-induced cytopathic effect by fluorescence microscopic analysis; type: functional, organism-based; details: Human immunodeficiency virus 1, T21055, MT4
[32] = system: Human immunodeficiency virus 1; assay: Antiviral activity against HIV1 T21217 infected in human MT4 cells expressing LTR and EGFP assessed as inhibition of virus-induced cytopathic effect by fluorescence microscopic analysis; type: functional, organism-based; details: Human immunodeficiency virus 1, T21217, MT4
[33] = system: Human immunodeficiency virus 1; assay: Ratio of EC50 for antiviral activity against HIV1-T21055 to EC50 for antiviral activity against wild type HIV1 r13205; type: functional
[34] = system: Human immunodeficiency virus 1; assay: Antiviral activity against HIV1 T13717 infected in human MT4 cells expressing LTR and EGFP assessed as inhibition of virus-induced cytopathic effect by fluorescence microscopic analysis; type: functional, organism-based; details: Human immunodeficiency virus 1, T13717, MT4
[35] = system: Human immunodeficiency virus 1; assay: Ratio of EC50 for antiviral activity against HIV1-T20760 to EC50 for antiviral activity against wild type HIV1 r13205; type: functional
[36] = Lipophilicity, logP of the compound in Octanol/water by shake-flask method; type: physicochemical
[37] = system: Human immunodeficiency virus 1; assay: Antiviral activity against wild type HIV1 r13205 infected in human MT4 cells expressing LTR and EGFP assessed as inhibition of virus-induced cytopathic effect by fluorescence microscopic analysis; type: functional, organism-based; details: Human immunodeficiency virus 1, r13205, MT4
[38] = system: Human immunodeficiency virus 1; assay: Antiviral activity against HIV1 T13436 infected in human MT4 cells expressing LTR and EGFP assessed as inhibition of virus-induced cytopathic effect by fluorescence microscopic analysis; type: functional, organism-based; details: Human immunodeficiency virus 1, T13436, MT4
[39] = system: Human immunodeficiency virus 1; assay: Ratio of EC50 for antiviral activity against HIV1-T13436 to EC50 for antiviral activity against wild type HIV1 r13205; type: functional
[40] = system: Human immunodeficiency virus 1; assay: Antiviral activity against HIV1 T13632 infected in human MT4 cells expressing LTR and EGFP assessed as inhibition of virus-induced cytopathic effect by fluorescence microscopic analysis; type: functional, organism-based; details: Human immunodeficiency virus 1, T13632, MT4
[41] = system: Human immunodeficiency virus 1; assay: Antiviral activity against HIV1 T20760 infected in human MT4 cells expressing LTR and EGFP assessed as inhibition of virus-induced cytopathic effect by fluorescence microscopic analysis; type: functional, organism-based; details: Human immunodeficiency virus 1, T20760, MT4
[42] = Selectivity index, ratio of CC50 for human MT2 cells to IC50 for antiviral activity against HIV1 LAI; type: toxicity; details: read-out: Ratio CC50/EC50
[43] = Apparent permeability in rat astrocytes/rat pericytes/monkey endothelial cells triple cell co-culture system incubated for 30 mins by spectrophotometric analysis; type: ADME, cell-based
[44] = system: Human immunodeficiency virus 1; assay: Antiviral activity against HIV1 LAI infected in human MT2 cells assessed as inhibition of virus-induced cytopathic effect by MTT assay; type: functional, organism-based; details: Human immunodeficiency virus 1, LAI
[45] = Cytotoxicity against human MT2 cells assessed as reduction in cell viability by MTT assay; type: toxicity, cell-based
[46] = target: T1, Human immunodeficiency virus type 1 protease; assay: Binding affinity to HIV1 recombinant wild type protease expressed in Escherichia coli BL21(DE3) assessed as inhibition constant

| SMILES | Ki [6] [nM] | Ratio EC50 [7] | EC50 [8] [nM] | Ratio EC50 [9] | EC50 [10] [nM] | EC50 [11] [nM] | Ratio EC50 [12] | EC50 [13] [nM] | Ratio EC50 [14] | EC50 [15] [nM] | Ratio EC50 [16] | EC50 [17] [nM] | EC50 [18] [nM] | Ratio EC50 [19] | EC50 [20] [nM] | Ratio EC50 [21] | EC50 [22] [nM] | Ratio EC50 [23] | logD [27] | logP [36] | also measured |
| --- | --- | --- | --- | --- | --- | --- | --- | --- | --- | --- | --- | --- | --- | --- | --- | --- | --- | --- | --- | --- | --- |
| CC[C@@H](CCC[C@@H](CO)N(CCC(C)C)S(=O)(=O)c1ccc(N)cc1)NC(=O)[C@@H](NC(=O)OC)C(c1ccccc1)c1ccccc1 | – | – | – | – | – | – | – | – | – | – | – | – | – | – | – | – | – | – | – | – | clearance [1]: 48.5 mL/min/kg; AUC [2]: 1.17 µM·h; half-life [3]: 2.13 h; half-life [4]: 7.4 h; clearance [5]: 10.1 mL/min/kg |
| COc1ccc(S(=O)(=O)N(CC(C)C)C[C@@H](O)[C@H](Cc2ccccc2)NC(=O)O[C@H]2CO[C@H]3O[C@@H]4OCC[C@@H]4[C@H]32)cc1 | 0.0059 | 4 | 5.6 | 4 | 3.4 | 0.8 | 1 | 2.5 | 50 | 30 | 9 | 2.6 | 2.1 | 4 | 0.6 | 4 | 2.5 | 6 | – | – | – |
| COc1ccc(S(=O)(=O)N(CC(C)C)C[C@@H](O)[C@H](Cc2ccc(OCP(=O)(O)O)cc2)NC(=O)O[C@H]2CO[C@H]3OCC[C@H]32)cc1 | – | – | – | – | – | – | – | – | – | – | – | – | – | – | – | – | – | – | – | – | Ki [24]: 0.0133 nM |
| CC(C)CN(C[C@@H](O)[C@H](Cc1ccccc1)NC(=O)O[C@H]1CO[C@H]2OCC[C@H]21)S(=O)(=O)c1ccc(N)cc1 | – | 3 | 43.4 | 6 | 21 | 5 | 2 | 10 | 64 | 255 | 11 | 7 | 4.3 | 2 | 3.8 | 1 | > 25 | 7 | -1.03 | -0.63 | EC50 [25]: 234 nM; Ratio EC50 [26]: 3.8; Ratio EC50 [28]: 30; Ratio EC50 [29]: 28; Ratio EC50 [30]: 11; EC50 [31]: 122 nM; EC50 [32]: 84 nM; Ratio EC50 [33]: 5.5; EC50 [34]: 670 nM; Ratio EC50 [35]: 1.8; EC50 [37]: 22 nM; EC50 [38]: 49 nM; Ratio EC50 [39]: 2.2; EC50 [40]: 624 nM; EC50 [41]: 39 nM |
| CC(C)CN(C[C@@H](O)[C@H](Cc1ccccc1)NC(=O)O[C@H]1CO[C@H]2OCC(F)(F)[C@H]21)S(=O)(=O)c1ccc(N)cc1 | 0.0058 | 1 | – | 7 | 11 | 2 | 1 | 3 | – | – | – | 4 | 4 | 2 | 2.7 | 2 | 20 | 3 | -1.01 | -0.83 | selectivity ratio [42]: 12300; Papp at 0.5 h [43]: 47.8 ×10⁻⁶ cm/s; EC50 [44]: 3 nM; CC50 [45]: 37000 nM |
| CC(C)CN(C[C@@H](O)[C@H](Cc1ccccc1)NC(=O)O[C@H]1CO[C@H]2OCC[C@H]21)S(=O)(=O)c1ccc(C(N)=O)cc1 | – | – | – | – | – | – | – | – | – | – | – | – | – | – | – | – | – | – | – | – | Ki [46]: 0.0089 nM; EC50 [44]: 93 nM |
